Measured values from patent publication US20040014047A1, “Antisense modulation of LIM domain kinase 1 expression” (Isis Pharmaceuticals Inc., priority 2002, published 2004).
Strand notation (5' to 3'): a small letter for the sugar, then the base; units joined by * are phosphorothioate-linked, units joined directly phosphodiester-linked; [ ] holds rarer units or linkages, { } end groups; capitals alone tell only the bases. e = 2'-O-(2-methoxyethyl) (MOE); [5mC] = 5-methylcytosine; d = 2'-deoxy (DNA)

System: human LIM domain kinase 1 mRNA
Test: Antisense inhibition of human LIM domain kinase 1 mRNA levels, quantitative real-time PCR, A549 cells (screen)
Type: cell-based
Conditions: real-time PCR, bound stated
Experimental: When cells reached 70% confluency, they were treated with oligonucleotide. […] Cells were harvested 16-24 hours after oligonucleotide treatment.
Vacuum was applied for 1 minute.
PCR reagents were obtained from Invitrogen Corporation, (Carlsbad, Calif.).
Total RNA is quantified using RiboGreenTM RNA quantification reagent from Molecular Probes.
Probes and primers to human LIM domain kinase 1 were designed to hybridize to a human LIM domain kinase 1 sequence, using published sequence information (GenBank accession number D26309.1, incorporated herein as SEQ ID NO:4). For human LIM domain kinase 1 the PCR primers were: forward primer: […] (SEQ ID NO: 5) reverse primer: […] (SEQ ID NO: 6) and the PCR probe was: FAM-[…]-TAMRA (SEQ ID NO: 7) where FAM is the fluorescent dye and TAMRA is the quencher dye.
All cytidine residues are 5-methylcytidines. […] Data are averages from two experiments in which A549 cells were treated with the oligonucleotides of the present invention. […] If present, “N.D.” indicates “no data”.

Substance | inhibition of human LIM domain kinase 1 expression (text summary of Table 1)
agggcctggaggtactggcc (eA*eG*eG*eG*e[5mC]*d[5mC]*dT*dG*dG*dA*dG*dG*dT*dA*d[5mC]*eT*eG*eG*e[5mC]*e[5mC]; antisense) [ISIS 206171] | at least 65%
aggtaggccatccctgatgc (eA*eG*eG*eT*eA*dG*dG*d[5mC]*d[5mC]*dA*dT*d[5mC]*d[5mC]*d[5mC]*dT*eG*eA*eT*eG*e[5mC]; antisense) [ISIS 206201] | at least 65%
aggtccttgcgctgggaggc (eA*eG*eG*eT*e[5mC]*d[5mC]*dT*dT*dG*d[5mC]*dG*d[5mC]*dT*dG*dG*eG*eA*eG*eG*e[5mC]; antisense) [ISIS 206193] | at least 65%
agtacagcttggagtgctcc (eA*eG*eT*eA*e[5mC]*dA*dG*d[5mC]*dT*dT*dG*dG*dA*dG*dT*eG*e[5mC]*eT*e[5mC]*e[5mC]; antisense) [ISIS 206178] | at least 65%
agtagtccttcttgcagaag (eA*eG*eT*eA*eG*dT*d[5mC]*d[5mC]*dT*dT*d[5mC]*dT*dT*dG*d[5mC]*eA*eG*eA*eA*eG; antisense) [ISIS 206173] | at least 65%
atacgttcttccctccaggt (eA*eT*eA*e[5mC]*eG*dT*dT*d[5mC]*dT*dT*d[5mC]*d[5mC]*d[5mC]*dT*d[5mC]*e[5mC]*eA*eG*eG*eT; antisense) [ISIS 206167] | at least 65%
atgctgcagctcctcctggg (eA*eT*eG*e[5mC]*eT*dG*d[5mC]*dA*dG*d[5mC]*dT*d[5mC]*d[5mC]*dT*d[5mC]*e[5mC]*eT*eG*eG*eG; antisense) [ISIS 206232] | at least 65%
atttccaagatccggtctcc (eA*eT*eT*eT*e[5mC]*d[5mC]*dA*dA*dG*dA*dT*d[5mC]*d[5mC]*dG*dG*eT*e[5mC]*eT*e[5mC]*e[5mC]; antisense) [ISIS 206184] | at least 65%
caggtgcaacaaagtagcgt (e[5mC]*eA*eG*eG*eT*dG*d[5mC]*dA*dA*d[5mC]*dA*dA*dA*dG*dT*eA*eG*e[5mC]*eG*eT; antisense) [ISIS 206164] | at least 65%
cattcttgttctcgcggacc (e[5mC]*eA*eT*eT*e[5mC]*dT*dT*dG*dT*dT*d[5mC]*dT*d[5mC]*dG*d[5mC]*eG*eG*eA*e[5mC]*e[5mC]; antisense) [ISIS 206204] | at least 65%
ccacctcccgcggaggaatc (e[5mC]*e[5mC]*eA*e[5mC]*e[5mC]*dT*d[5mC]*d[5mC]*d[5mC]*dG*d[5mC]*dG*dG*dA*dG*eG*eA*eA*eT*e[5mC]; antisense) [ISIS 206208] | at least 65%
ccaggtgagtgtgcaaggca (e[5mC]*e[5mC]*eA*eG*eG*dT*dG*dA*dG*dT*dG*dT*dG*d[5mC]*dA*eA*eG*eG*e[5mC]*eA; antisense) [ISIS 206230] | at least 65%
cctccagggagctatggacc (e[5mC]*e[5mC]*eT*e[5mC]*e[5mC]*dA*dG*dG*dG*dA*dG*d[5mC]*dT*dA*dT*eG*eG*eA*e[5mC]*e[5mC]; antisense) [ISIS 206210] | at least 65%
cgccatagcgggcccagtag (e[5mC]*eG*e[5mC]*e[5mC]*eA*dT*dA*dG*d[5mC]*dG*dG*dG*d[5mC]*d[5mC]*d[5mC]*eA*eG*eT*eA*eG; antisense) [ISIS 206176] | at least 65%
ctcagacccttgagttactg (e[5mC]*eT*e[5mC]*eA*eG*dA*d[5mC]*d[5mC]*d[5mC]*dT*dT*dG*dA*dG*dT*eT*eA*e[5mC]*eT*eG; antisense) [ISIS 206227] | at least 65%
ctctgggccacggcagagag (e[5mC]*eT*e[5mC]*eT*eG*dG*dG*d[5mC]*d[5mC]*dA*d[5mC]*dG*dG*d[5mC]*dA*eG*eA*eG*eA*eG; antisense) [ISIS 206209] | at least 65%
ctgctgcagccgtatgaaaa (e[5mC]*eT*eG*e[5mC]*eT*dG*d[5mC]*dA*dG*d[5mC]*d[5mC]*dG*dT*dA*dT*eG*eA*eA*eA*eA; antisense) [ISIS 206162] | at least 65%
ctggctgtccatgctcttga (e[5mC]*eT*eG*eG*e[5mC]*dT*dG*dT*d[5mC]*d[5mC]*dA*dT*dG*d[5mC]*dT*e[5mC]*eT*eT*eG*eA; antisense) [ISIS 206200] | at least 65%

Substance | inhibition of human LIM domain kinase 1 expression (text summary of Table 1)
cttcctctcccatacgttct (e[5mC]*eT*eT*e[5mC]*e[5mC]*dT*d[5mC]*dT*d[5mC]*d[5mC]*d[5mC]*dA*dT*dA*d[5mC]*eG*eT*eT*e[5mC]*eT; antisense) [ISIS 206169] | at least 65%
gacaggtttctgccgggcag (eG*eA*e[5mC]*eA*eG*dG*dT*dT*dT*d[5mC]*dT*dG*d[5mC]*d[5mC]*dG*eG*eG*e[5mC]*eA*eG; antisense) [ISIS 206190] | at least 65%
gcagctgctgctgcagccgt (eG*e[5mC]*eA*eG*e[5mC]*dT*dG*d[5mC]*dT*dG*d[5mC]*dT*dG*d[5mC]*dA*eG*e[5mC]*e[5mC]*eG*eT; antisense) [ISIS 206215] | at least 65%
gcagtgcccgcagtacagct (eG*e[5mC]*eA*eG*eT*dG*d[5mC]*d[5mC]*d[5mC]*dG*d[5mC]*dA*dG*dT*dA*e[5mC]*eA*eG*e[5mC]*eT; antisense) [ISIS 206179] | at least 65%
gcagtgcccgctgcaagagc (eG*e[5mC]*eA*eG*eT*dG*d[5mC]*d[5mC]*d[5mC]*dG*d[5mC]*dT*dG*d[5mC]*dA*eA*eG*eA*eG*e[5mC]; antisense) [ISIS 206231] | at least 65%
gcatcgcatgaccttcacct (eG*e[5mC]*eA*eT*e[5mC]*dG*d[5mC]*dA*dT*dG*dA*d[5mC]*d[5mC]*dT*dT*e[5mC]*eA*e[5mC]*e[5mC]*eT; antisense) [ISIS 206197] | at least 65%
gccattgatttccaagatcc (eG*e[5mC]*e[5mC]*eA*eT*dT*dG*dA*dT*dT*dT*d[5mC]*d[5mC]*dA*dA*eG*eA*eT*e[5mC]*e[5mC]; antisense) [ISIS 206185] | at least 65%
gctgctgcagccgtatgaaa (eG*e[5mC]*eT*eG*e[5mC]*dT*dG*d[5mC]*dA*dG*d[5mC]*d[5mC]*dG*dT*dA*eT*eG*eA*eA*eA; antisense) [ISIS 206224] | at least 65%
ggaattcttcacatctgggc (eG*eG*eA*eA*eT*dT*d[5mC]*dT*dT*d[5mC]*dA*d[5mC]*dA*dT*d[5mC]*eT*eG*eG*eG*e[5mC]; antisense) [ISIS 206182] | at least 65%
ggagtgaaagcacccagctg (eG*eG*eA*eG*eT*dG*dA*dA*dA*dG*d[5mC]*dA*d[5mC]*d[5mC]*d[5mC]*eA*eG*e[5mC]*eT*eG; antisense) [ISIS 206225] | at least 65%
ggcccagtagtccttcttgc (eG*eG*e[5mC]*e[5mC]*e[5mC]*dA*dG*dT*dA*dG*dT*d[5mC]*d[5mC]*dT*dT*e[5mC]*eT*eT*eG*e[5mC]; antisense) [ISIS 206174] | at least 65%
ggcgtgccattgatttccaa (eG*eG*e[5mC]*eG*eT*dG*d[5mC]*d[5mC]*dA*dT*dT*dG*dA*dT*dT*eT*e[5mC]*e[5mC]*eA*eA; antisense) [ISIS 206186] | at least 65%
ggtccttgcgctgggaggcc (eG*eG*eT*e[5mC]*e[5mC]*dT*dT*dG*d[5mC]*dG*d[5mC]*dT*dG*dG*dG*eA*eG*eG*e[5mC]*e[5mC]; antisense) [ISIS 206233] | at least 65%
gtcaacctcatgcactcgac (eG*eT*e[5mC]*eA*eA*d[5mC]*d[5mC]*dT*d[5mC]*dA*dT*dG*d[5mC]*dA*d[5mC]*eT*e[5mC]*eG*eA*e[5mC]; antisense) [ISIS 206163] | at least 65%
gtcacaacacctgcaggaga (eG*eT*e[5mC]*eA*e[5mC]*dA*dA*d[5mC]*dA*d[5mC]*d[5mC]*dT*dG*d[5mC]*dA*eG*eG*eA*eG*eA; antisense) [ISIS 206229] | at least 65%
gtctcggtggatgatgttca (eG*eT*e[5mC]*eT*e[5mC]*dG*dG*dT*dG*dG*dA*dT*dG*dA*dT*eG*eT*eT*e[5mC]*eA; antisense) [ISIS 206202] | at least 65%
gtggccctggctcagtcggg (eG*eT*eG*eG*e[5mC]*d[5mC]*d[5mC]*dT*dG*dG*d[5mC]*dT*d[5mC]*dA*dG*eT*e[5mC]*eG*eG*eG; antisense) [ISIS 206207] | at least 65%
gtttctgccgggcagagctg (eG*eT*eT*eT*e[5mC]*dT*dG*d[5mC]*d[5mC]*dG*dG*dG*d[5mC]*dA*dG*eA*eG*e[5mC]*eT*eG; antisense) [ISIS 206189] | at least 65%
